Experiments:
Assay in all cases: relative viability (nuclei count vs DMSO), 5 days (fraction); higher = more cells survive
[1] = compound: COc1cc(Nc2ncc3c(n2)-c2ccc(Cl)cc2C(c2c(F)cccc2OC)=NC3)ccc1C(=O)O [Alisertib] + O=C(c1cc(Cc2n[nH]c(=O)c3ccccc23)ccc1F)N1CCN(C(=O)C2CC2)CC1 [Olaparib] (partner 8 µM)
In short: (§1)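 Five library-drug doses in √10 steps were combined with a fixed anchor-drug dose, or a single drug was given alone, by pin tool to lung cancer cell lines in 1536-well plates the day after seeding. Nuclei were stained and counted after 5 days. Relative viability is the nuclei count in treated wells over that in vehicle wells, taken as the median of duplicate plates.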

[2] = compound: COc1cc(Nc2ncc3c(n2)-c2ccc(Cl)cc2C(c2c(F)cccc2OC)=NC3)ccc1C(=O)O [Alisertib] + NC(=O)Nc1cc(-c2cccc(F)c2)sc1C(=O)N[C@H]1CCCNC1 [AZD7762] (partner 0.2 µM)
In short: as §1

[3] = compound: COc1cc(Nc2ncc3c(n2)-c2ccc(Cl)cc2C(c2c(F)cccc2OC)=NC3)ccc1C(=O)O [Alisertib] + CS(=O)(=O)CCNCc1ccc(-c2ccc3ncnc(Nc4ccc(OCc5cccc(F)c5)c(Cl)c4)c3c2)o1 [Lapatinib] (partner 2 µM)
In short: as §1

[4] = compound: COc1cc(Nc2ncc3c(n2)-c2ccc(Cl)cc2C(c2c(F)cccc2OC)=NC3)ccc1C(=O)O [Alisertib] + Nc1ncn([C@H]2C[C@H](O)[C@@H](CO)O2)c(=O)n1 [Decitabine] (partner 2 µM)
In short: as §1

Row | Cell Line | relative viability ([1]; first compound 0.005 µM) | relative viability ([1]; first compound 0.01581 µM) | relative viability ([1]; first compound 0.05 µM) | relative viability ([1]; first compound 0.1581 µM) | relative viability ([1]; first compound 0.5 µM) | relative viability ([2]; first compound 0.005 µM) | relative viability ([2]; first compound 0.01581 µM) | relative viability ([2]; first compound 0.05 µM) | relative viability ([2]; first compound 0.1581 µM) | relative viability ([2]; first compound 0.5 µM) | relative viability ([3]; first compound 0.005 µM) | relative viability ([3]; first compound 0.01581 µM) | relative viability ([3]; first compound 0.05 µM) | relative viability ([3]; first compound 0.1581 µM) | relative viability ([3]; first compound 0.5 µM) | relative viability ([4]; first compound 0.005 µM) | relative viability ([4]; first compound 0.01581 µM) | relative viability ([4]; first compound 0.05 µM) | relative viability ([4]; first compound 0.1581 µM) | relative viability ([4]; first compound 0.5 µM)
1 | HCC-366 | 0.32 | 0.173 | 0.0172 | 0.0252 | 0.0457 | 0.351 | 0.396 | 0.0718 | 0.0314 | 0.027 | 1.02 | 0.31 | 0.0171 | 0.0127 | 0.0262 | 0.29 | 0.16 | 0.0371 | 0.0279 | 0.0431
2 | HCC-827 | 0.639 | 0.654 | 0.201 | 0.293 | 0.257 | 0.18 | 0.247 | 0.206 | 0.123 | 0.15 | 0.183 | 0.228 | 0.191 | 0.16 | 0.101 | 0.373 | 0.303 | 0.246 | 0.219 | 0.24
3 | HOP-62 | 0.361 | 0.328 | 0.134 | 0.132 | 0.0731 | 0.447 | 0.412 | 0.268 | 0.158 | 0.0945 | 0.838 | 0.803 | 0.883 | 0.223 | 0.146 | 0.17 | 0.217 | 0.205 | 0.136 | 0.2
4 | IA-LM | 0.671 | 0.674 | 0.596 | 0.449 | 0.0913 | – | – | – | – | – | 0.853 | 0.91 | 0.309 | 0.212 | 0.184 | – | – | – | – | –
5 | LCLC-103H | 0.598 | 0.709 | 0.356 | 0.357 | 0.353 | 0.711 | 0.767 | 0.764 | 0.41 | 0.322 | – | – | – | – | – | 0.72 | 0.714 | 0.355 | 0.315 | 0.431
6 | NCI-H441 | 0.487 | 0.471 | 0.139 | 0.173 | 0.172 | 0.927 | 0.977 | 0.471 | 0.243 | 0.199 | – | – | – | – | – | 0.227 | 0.197 | 0.137 | 0.152 | 0.153
7 | NCI-H520 | 0.317 | 0.244 | 0.217 | 0.18 | 0.249 | – | – | – | – | – | 0.76 | 0.449 | 0.276 | 0.258 | 0.242 | 0.435 | 0.451 | 0.355 | 0.236 | 0.242
8 | NCI-H522 | 0.604 | 0.591 | 0.453 | 0.452 | 0.437 | 0.818 | 0.843 | 0.785 | 0.406 | 0.411 | – | – | – | – | – | 0.69 | 0.686 | 0.558 | 0.443 | 0.408
9 | NCI-H661 | 0.735 | 0.562 | 0.397 | 0.355 | 0.357 | – | – | – | – | – | 0.519 | 0.439 | 0.323 | 0.342 | 0.279 | 0.459 | 0.501 | 0.37 | 0.312 | 0.293
10 | NCI-H1563 | – | – | – | – | – | – | – | – | – | – | 1.02 | 0.654 | 0.85 | 0.892 | 0.598 | – | – | – | – | –
11 | NCI-H1648 | – | 0.711 | 0.293 | 0.242 | 0.267 | – | 0.654 | 0.62 | 0.314 | 0.223 | – | – | – | – | – | – | 0.478 | 0.405 | 0.279 | 0.247
12 | NCI-H1650 | 0.813 | 0.61 | 0.16 | 0.163 | 0.204 | – | – | – | – | – | 0.768 | 0.222 | 0.203 | 0.175 | 0.228 | 0.336 | 0.326 | 0.2 | 0.162 | 0.189
13 | NCI-H1703 | 0.534 | 0.387 | 0.198 | 0.153 | 0.141 | 0.119 | 0.134 | 0.115 | 0.0952 | 0.0979 | 1.11 | 0.721 | 0.217 | 0.262 | 0.137 | – | – | – | – | –
14 | NCI-H2009 | 0.645 | 0.689 | 0.275 | 0.291 | 0.148 | – | – | – | – | – | 0.863 | 0.76 | 0.355 | 0.255 | 0.319 | 0.338 | 0.388 | 0.292 | 0.194 | 0.168
15 | NCI-H2023 | 0.448 | 0.456 | 0.27 | 0.134 | 0.101 | – | – | – | – | – | 0.848 | 0.602 | 0.41 | 0.135 | 0.0899 | 0.252 | 0.193 | 0.145 | 0.109 | 0.0849
16 | NCI-H2228 | 0.652 | 0.767 | 0.205 | 0.0922 | 0.0747 | – | – | – | – | – | 0.731 | 0.562 | 0.182 | 0.115 | 0.209 | – | – | – | – | –
17 | NCI-H2342 | 0.463 | 0.475 | 0.298 | 0.33 | 0.349 | 0.565 | 0.43 | 0.347 | 0.352 | 0.414 | – | – | – | – | – | 0.673 | 0.639 | 0.452 | 0.441 | 0.431
18 | SK-LU-1 | 0.437 | 0.447 | 0.344 | 0.247 | 0.183 | – | – | – | – | – | 0.79 | 0.569 | 0.296 | 0.265 | 0.237 | 0.58 | 0.665 | 0.239 | 0.307 | 0.276
19 | SK-MES-1 | 0.594 | 0.614 | 0.351 | 0.192 | 0.168 | – | – | – | – | – | 0.468 | 0.508 | 0.411 | 0.263 | 0.219 | 0.373 | 0.346 | 0.225 | 0.158 | 0.167
20 | SW 900 | 0.897 | 0.648 | 0.306 | 0.29 | 0.298 | 0.568 | 0.617 | 0.637 | 0.232 | 0.17 | – | – | – | – | – | 0.419 | 0.377 | 0.296 | 0.213 | 0.255
21 | SW 1573 | 0.486 | 0.294 | 0.209 | 0.136 | 0.115 | – | – | – | – | – | 1.15 | 0.939 | 0.552 | 0.345 | 0.203 | 0.419 | 0.338 | 0.212 | 0.125 | 0.109
22 | UMC-11 | 0.287 | 0.216 | 0.193 | 0.252 | 0.215 | – | – | – | – | – | 0.438 | 0.29 | 0.162 | 0.163 | 0.158 | 0.514 | 0.324 | 0.291 | 0.213 | 0.214

Reference: the supplement of paper PMC10307832
